Reference: ChEMBL document CHEMBL3244058, “Dibenz[b,e]oxepinalkanoic acids as nonsteroidal antiinflammatory agents. 2. Dihydro-10-oxofuro-and -thieno[3,2-c][1]benzoxepin-8-acetic acids” (J Med Chem, 1977)

Legend:
Rattus norvegicus [1] = assay: Antiinflammatory activity in po dosed rat assessed as inhibition of carrageenan-induced paw edema; type: functional
[2] = Gastrointestinal toxicity in po dosed rat assessed as induction of gastric irritation; type: organism-based, Stomach; details: in vivo, read-out: ID50 (the source's name)
[3] = Therapeutic index, ratio of ID50 for po dosed rat to ED50 for po dosed rat; type: organism-based; details: in vivo, read-out: TI
Rattus norvegicus [4] = assay: Ratio of indomethacin ED50 to compound ED50 for po dosed rat assessed as inhibition of carrageenan-induced paw edema; type: functional

Compound | ED50 (Rattus norvegicus [1]) [mg/kg] | TD50 [2] [mg/kg] | selectivity ratio [3] | Ratio ED50 (Rattus norvegicus [4])
O=C(O)Cc1ccc2c(c1)C(=O)c1sccc1CO2 | 3.37 | 33.7 | 10 | 1.3
COc1ccc2c(c1)c(CC(=O)O)c(C)n2C(=O)c1ccc(Cl)cc1 [INDOMETHACIN] | 4.35 |  | 0.4 | 
O=C(O)Cc1ccc2c(c1)C(=O)c1ccccc1CO2 [ISOXEPAC] | 6.36 |  | 13 | 
O=C(O)Cc1ccc2c(c1)C(=O)c1occc1CO2 | 33.3 |  |  | 
